Results published in PubChem BioAssay AID330 (DTP/NCI, 2004).
“And” between values parts separate entries of the source, which are not always exact repeats. Identical values can stand only once. Inconclusive results and toxic doses are left out. How the source made its calls: active means survival T/C of 150% or more; inactive means T/C below 125% in these data. Square brackets hold non-standard residues; d marks the D form. Peptide text beside a SMILES is read from it. ξ: configuration not given here. ξQ = NC(=O)CCC(N)C(=O)O

Test system: P388 leukemia ip, CD2F1 mice, survival T/C
Assay: NCI In Vivo Anticancer Drug Screen. Data for tumor model P388 Leukemia (intraperitoneal) in CD2F1 (CDF1) mice
Conditions: endpoint: median survival time, higher = longer survival
Summary of the method: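 Mice carrying the transplanted tumor received test compound or vehicle. Survival was recorded in each group, and the value is the treated-group measurement divided by that of the vehicle-treated control group.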

[1] = dose: 50.0 mg/kg/injection, schedule: Q01DX005 (ip), vehicle: Klucel (hydroxypropylcellulose) (HPC)
[2] = dose: 100.0 mg/kg/injection, schedule: Q01DX005 (ip), vehicle: Klucel (hydroxypropylcellulose) (HPC)
[3] = dose: 200.0 mg/kg/injection, schedule: Q01DX005 (ip), vehicle: Klucel (hydroxypropylcellulose) (HPC)
[4] = dose: 50.0 mg/kg/injection, schedule: Q01DX005 (ip), vehicle: saline with Tween-80
[5] = dose: 100.0 mg/kg/injection, schedule: Q01DX005 (ip), vehicle: saline with Tween-80
[6] = dose: 200.0 mg/kg/injection, schedule: Q01DX005 (ip), vehicle: saline with Tween-80
[7] = dose: 60.0 mg/kg/injection, schedule: Q01DX005 (ip), vehicle: Klucel (hydroxypropylcellulose) (HPC)
[8] = dose: 120.0 mg/kg/injection, schedule: Q01DX005 (ip), vehicle: Klucel (hydroxypropylcellulose) (HPC)
[9] = dose: 100.0 mg/kg/injection, schedule: Q04DX003 (ip), vehicle: saline
[10] = dose: 200.0 mg/kg/injection, schedule: Q04DX003 (ip), vehicle: saline
[11] = dose: 400.0 mg/kg/injection, schedule: Q04DX003 (ip), vehicle: saline
[12] = dose: 100.0 mg/kg/injection, schedule: Q04DX003 (ip), vehicle: saline with Tween-80
[13] = dose: 200.0 mg/kg/injection, schedule: Q04DX003 (ip), vehicle: saline with Tween-80
[14] = dose: 400.0 mg/kg/injection, schedule: Q04DX003 (ip), vehicle: saline with Tween-80
[15] = dose: 60.0 mg/kg/injection, schedule: Q01DX005 (ip), vehicle: saline with Tween-80
[16] = dose: 120.0 mg/kg/injection, schedule: Q01DX005 (ip), vehicle: saline with Tween-80
[17] = dose: 240.0 mg/kg/injection, schedule: Q01DX005 (ip), vehicle: saline with Tween-80
[18] = dose: 50.0 mg/kg/injection, schedule: Q01DX005 (ip), vehicle: saline
[19] = dose: 100.0 mg/kg/injection, schedule: Q01DX005 (ip), vehicle: saline
[20] = dose: 200.0 mg/kg/injection, schedule: Q01DX005 (ip), vehicle: saline

Measured: T/C

CC1OC(O)C(O)C(O)C1O (centres undefined)
inactive: [1] 101 % of control | [2] 93 % of control | [3] 104 % of control

COC(=O)/N=C/CCC(O)NC(=O)OC (centres undefined)
inactive: [4] 98 % of control | [5] 101 % of control | [6] 92 % of control

O=C1C(N=Nc2ccc(Br)cc2)Sc2nc3ccccc3n21 (centres undefined)
inactive: [7] 89 % of control | [8] 89 % of control

CCOC1N=C(c2ccccc2)c2cc(Cl)ccc2NC1=O (centres undefined)
inactive: dose: 50.0 mg/kg/injection, schedule: Q01DX009 (ip), vehicle: Klucel (hydroxypropylcellulose) (HPC) 101 % of control | dose: 100.0 mg/kg/injection, schedule: Q01DX009 (ip), vehicle: Klucel (hydroxypropylcellulose) (HPC) 95 % of control | dose: 200.0 mg/kg/injection, schedule: Q01DX009 (ip), vehicle: Klucel (hydroxypropylcellulose) (HPC) 93 % of control

COc1cc2c(cc1O)-c1[nH]ncc1CCC2
inactive: [9] 101 % of control | [10] 97 % of control | [11] 102 % of control

COc1ccc(C(Nc2ccccn2)c2cc(C(C)(C)C)c(O)c(C(C)(C)C)c2)cc1 (centres undefined)
inactive: [4] 88 % of control | [5] 91 % of control | [6] 95 % of control

O=CNNC(=S)Nc1ccccc1
inactive: dose: 50.0 mg/kg/injection, schedule: Q01DX009 (ip), vehicle: saline with Tween-80 113 % of control | dose: 100.0 mg/kg/injection, schedule: Q01DX009 (ip), vehicle: saline with Tween-80 109 % of control | dose: 200.0 mg/kg/injection, schedule: Q01DX009 (ip), vehicle: saline with Tween-80 108 % of control

CC1=CCC(C(C)(O)C2CCC3(C)C4=C(C=C5C=CC(=O)OC(C)(C)C5CC4)CCC23C)OC1=O (centres undefined)
inactive: dose: 12.5 mg/kg/injection, schedule: Q01DX005 (ip), vehicle: other 94 % of control | dose: 25.0 mg/kg/injection, schedule: Q01DX005 (ip), vehicle: other 92 % of control

NC(=O)Cc1nc(O)cs1
inactive: [7] 102 % of control | [8] 101 % of control | dose: 240.0 mg/kg/injection, schedule: Q01DX005 (ip), vehicle: Klucel (hydroxypropylcellulose) (HPC) 109 % of control

C=CC(O)CC#N (centres undefined)
inactive: dose: 18.75 mg/kg/injection, schedule: Q01DX009 (ip), vehicle: saline with Tween-80 102 % of control | dose: 37.5 mg/kg/injection, schedule: Q01DX009 (ip), vehicle: saline with Tween-80 102 % of control | dose: 75.0 mg/kg/injection, schedule: Q01DX009 (ip), vehicle: saline with Tween-80 108 % of control

COC(=O)/N=C1\C(=O)C=CC(O)=C1C(N)=O
inactive: dose: 6.25 mg/kg/injection, schedule: Q01DX005 (ip), vehicle: saline with Tween-80 90 % of control | dose: 12.5 mg/kg/injection, schedule: Q01DX005 (ip), vehicle: saline with Tween-80 94 % of control | dose: 25.0 mg/kg/injection, schedule: Q01DX005 (ip), vehicle: saline with Tween-80 92 % of control

CC(C)CC(NC(=O)C(Cc1ccccc1)NC(=O)CNC(=O)CNC(=O)C(N)Cc1ccc(O)cc1)C(N)=O (centres undefined)
inactive: dose: 8.75 mg/kg/injection, schedule: Q01DX005 (ip), vehicle: saline 108 % of control | dose: 17.5 mg/kg/injection, schedule: Q01DX005 (ip), vehicle: saline 110 % of control | dose: 35.0 mg/kg/injection, schedule: Q01DX005 (ip), vehicle: saline 104 % of control | dose: 70.0 mg/kg/injection, schedule: Q01DX005 (ip), vehicle: saline 112 % of control | dose: 140.0 mg/kg/injection, schedule: Q01DX005 (ip), vehicle: saline 108 % of control

CC(C)(C)OC(=O)NCS(=O)(=O)N(Cc1ccccc1)Cc1ccccc1
inactive: [1] 102 % of control | [2] 101 % of control | [3] 97 % of control

O=S1(=O)C=C(Br)CO1
inactive: [12] 106 % of control | [13] 106 % of control | [14] 97 % of control

Cc1cccc(-n2c(-c3ccccc3)cs/c2=N\N=C2/CSC(=O)N2Cc2ccccc2)c1
inactive: dose: 100.0 mg/kg/injection, schedule: Q01DX001 (ip), vehicle: Klucel (hydroxypropylcellulose) (HPC) 101 % of control | dose: 200.0 mg/kg/injection, schedule: Q01DX001 (ip), vehicle: Klucel (hydroxypropylcellulose) (HPC) 101 % of control | dose: 400.0 mg/kg/injection, schedule: Q01DX001 (ip), vehicle: Klucel (hydroxypropylcellulose) (HPC) 99 % of control

C(=N\c1nccs1)/c1ccc[nH]1
inactive: [1] 99 % of control | [2] 96 % of control | [3] 100 % of control

Cc1nn(-c2ccccc2)c2c1C(=O)CC(C)O2 (centres undefined)
inactive: [7] 93 % of control | [8] 91 % of control

CCc1cccc(CC)c1NC(=O)c1ccccc1Br
inactive: [15] 97 % of control | [16] 96 % of control | [17] 112 % of control

O=C(NS(=O)C1C=CC2CCCC21)OC1CCCCC1c1ccccc1 (centres undefined)
inactive: [1] 109 % of control | [2] 100 % of control | [3] 97 % of control

CN1/C(=C2\C=CC=C\C2=N/S(=O)(=O)c2ccc(Cl)cc2)Sc2ccccc21
inactive: [9] 103 % of control | [10] 104 % of control | [11] 99 % of control

COc1cc2c(cc1OC)C(CSC)Cc1cc(OC)c(OC)cc1N(C)CCC2 (centres undefined)
inactive: [12] 102 % of control | [13] 93 % of control | [14] 93 % of control

O=C1NC(=O)C2C3C=CC(C12)C1C2CCOC2C31 (centres undefined)
inactive: [4] 104 % of control | [5] 100 % of control | [6] 99 % of control

CN(C)C1C(=O)C(C(=O)NCN2CCN(CCO)CC2)=C(O)C2(O)C(=O)C3=C(O)c4c(O)cccc4C(C)(O)C3CC12 (centres undefined)
inactive: dose: 25.0 mg/kg/injection, schedule: Q01DX005 (ip), vehicle: saline 104 % of control | [18] 102 % of control | [19] 104 % of control | [20] 95 % of control

O=C1NC(O)c2cc([N+](=O)[O-])ccc2O1 (centres undefined)
inactive: [4] 100 % of control and 107 % of control | [5] 102 % of control and 115 % of control | [6] 100 % of control and 120 % of control

COc1cc2ccncc2cc1O
inactive: dose: 3.13 mg/kg/injection, schedule: Q01DX009 (ip), vehicle: water 91 % of control | dose: 6.25 mg/kg/injection, schedule: Q01DX009 (ip), vehicle: water 95 % of control | dose: 12.5 mg/kg/injection, schedule: Q01DX009 (ip), vehicle: water 100 % of control | dose: 25.0 mg/kg/injection, schedule: Q01DX009 (ip), vehicle: water 95 % of control | dose: 50.0 mg/kg/injection, schedule: Q01DX009 (ip), vehicle: water 103 % of control

NC(=O)CCC(N)C(=O)NCC(=O)O (centres undefined) (H-[ξQ]-Gly-OH)
inactive: dose: 12.5 mg/kg/injection, schedule: Q01DX005 (ip), vehicle: distilled water + Tween-80 106 % of control | dose: 25.0 mg/kg/injection, schedule: Q01DX005 (ip), vehicle: distilled water + Tween-80 109 % of control | dose: 50.0 mg/kg/injection, schedule: Q01DX005 (ip), vehicle: distilled water + Tween-80 104 % of control | dose: 100.0 mg/kg/injection, schedule: Q01DX005 (ip), vehicle: distilled water + Tween-80 109 % of control | dose: 200.0 mg/kg/injection, schedule: Q01DX005 (ip), vehicle: distilled water + Tween-80 113 % of control

NC(=O)N/N=C(/Cc1nc2ccccc2nc1C/C(=N/NC(N)=O)c1cccc2ccccc12)c1cccc2ccccc12
inactive: [15] 99 % of control and 95 % of control | [16] 100 % of control | [17] 100 % of control and 91 % of control

CC(C)C(=O)N[C@H]1C[C@H]2CCC1(C)C2(C)C
inactive: [1] 103 % of control and 93 % of control | [2] 107 % of control and 96 % of control | [3] 111 % of control and 95 % of control

O=C1C(C(=Nc2ccc3ccccc3c2)c2ccccc2)=C(O)c2ccccc21
inactive: dose: 25.0 mg/kg/injection, schedule: Q04DX002 (ip), vehicle: saline with Tween-80 100 % of control | dose: 50.0 mg/kg/injection, schedule: Q04DX002 (ip), vehicle: saline with Tween-80 102 % of control | dose: 100.0 mg/kg/injection, schedule: Q04DX002 (ip), vehicle: saline with Tween-80 89 % of control

NC(CP(=O)(O)O)C(=O)O (centres undefined)
inactive: [18] 106 % of control | [19] 101 % of control | [20] 91 % of control
